Experimental data from ChEMBL document CHEMBL1201862, “PubChem BioAssay data set” (2004).
Active and inactive are the calls of the source.

Tests used:
INS1 = test: INS-1E survival protection against cytokine death – cell-based, luminescence, retest, dose response (AID 449756); format: functional; settings: Rattus norvegicus;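 note: cell death triggered by IL-1 beta plus TNF-alpha plus IFN-gamma mixture; protective hits raise ATP signal compared with cytokine alone wells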
[1] = MIN6 cell viability loss – mouse insulinoma, cytotoxicity control, dose response (AID 2122); format: functional;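 note: confirmatory high-throughput counterscreen run to flag cytotoxic compounds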
[2] = NIH3T3 cell viability loss – ATP luminescence, mouse fibroblasts, counter-screen, dose response (AID 2010); format: functional, cell-based;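 note: cells exposed to compound for about 90 hours before reading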
[3] = loss of viability in HepG2 cells – cell-based, CellTiter-Glo, cherry-picked, cytotoxicity control for Shn3 inhibitor project, dose response (AID 624134); format: functional
HEK293 [4] = test: cells; format: functional, cell-based; settings: Homo sapiens
[5] = Trypanosoma cruzi growth suppression in host cells – NIH3T3 host cells, beta-gal luminescence, confirmation (AID 2044); format: functional, cell-based;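 note: intracellular parasites grown in NIH/3T3 mouse fibroblasts as host cells; luminescent beta-galactosidase reporter signal from transgenic T. cruzi replicating inside host cells; inhibitors lower the luminescence signal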
[6] = reduction of Shn3 3'UTR-driven luciferase in osteoblasts – cell-based, Clone20 osteoblasts, firefly luciferase, cherry-picked, dose response (AID 624132); format: functional;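 note: firefly luciferase luminescence from reporter carrying the Shn3 3'UTR in osteoblasts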
[7] = decrease of insulin promoter-GFP reporter – imaging, high-content screening, mouse beta cells (AID 1628); format: functional; settings: MIN6
HEK293 [8] = test: inhibition of NOD1-driven NF-kB reporter – cell-based, luminescence, uHTS, primary screen (AID 1578); format: functional; settings: Homo sapiens
HEK293 [9] = test: NOD2 signaling inhibitors in MDP-stimulated cells, cell-based, uHTS, luminescence (AID 2001); format: functional; settings: Homo sapiens
HEK293 [10] = test: cells; format: functional, cell-based; settings: Homo sapiens; remark: listed apart in the source
[11] = non-specific 3'UTR reporter inhibition in Clone20-Shn3RL – cell-based, Renilla luciferase, cherry-picked, counter-screen for Shn3 inhibitor project, dose response (AID 624133); format: functional
Cytochrome P450 2D6 = Cytochrome P450 2D6 (Homo sapiens, UniProt P10635);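 note: CYP2D6 member of a cytochrome P450 panel assay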
[12] = biological target: T1, Corticotropin-releasing factor receptor 2/Corticotropin-releasing factor-binding protein (Homo sapiens, UniProt P24387+Q13324); test: activators of CRF receptor 2 with binding protein – uHTS hits, confirmation (AID 602473); format: functional; settings: read-out: EC50_Mean
T1 sequence (Q13324 whole entry): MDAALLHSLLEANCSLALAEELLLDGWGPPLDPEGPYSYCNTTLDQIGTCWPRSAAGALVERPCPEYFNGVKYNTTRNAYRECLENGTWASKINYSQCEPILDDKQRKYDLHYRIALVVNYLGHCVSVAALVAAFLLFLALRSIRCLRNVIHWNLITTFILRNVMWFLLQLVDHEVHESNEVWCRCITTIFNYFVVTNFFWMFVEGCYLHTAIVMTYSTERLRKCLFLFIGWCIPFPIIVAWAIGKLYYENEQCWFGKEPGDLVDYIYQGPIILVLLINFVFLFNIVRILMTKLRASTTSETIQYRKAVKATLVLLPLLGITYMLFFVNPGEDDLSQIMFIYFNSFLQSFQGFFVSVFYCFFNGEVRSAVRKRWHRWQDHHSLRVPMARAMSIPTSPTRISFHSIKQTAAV
T1 sequence (P24387 whole entry): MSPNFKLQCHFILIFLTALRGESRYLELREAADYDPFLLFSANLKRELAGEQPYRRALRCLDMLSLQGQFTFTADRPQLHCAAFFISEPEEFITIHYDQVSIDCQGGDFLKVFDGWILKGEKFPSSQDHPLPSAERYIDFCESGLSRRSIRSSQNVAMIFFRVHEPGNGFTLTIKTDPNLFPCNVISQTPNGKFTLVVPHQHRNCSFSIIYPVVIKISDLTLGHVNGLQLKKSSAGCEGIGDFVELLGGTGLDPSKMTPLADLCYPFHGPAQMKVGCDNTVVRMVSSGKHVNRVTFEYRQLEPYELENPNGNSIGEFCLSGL

[13] = biological target: T1, Corticotropin-releasing factor receptor 2/Corticotropin-releasing factor-binding protein; test: Dose Response confirmation of uHTS hits for small molecule antagonists of the CRF-binding protein and CRF-R2 receptor complex.; format: functional; settings: read-out: IC50_Mean
Phospholipase A2 = Phospholipase A2 (Homo sapiens, UniProt P04054); test: phospholipase A2 activity inhibition – biochemical, set 2, counter-screen for ATG4B inhibitor project, dose response (AID 588586); format: functional
Cytochrome P450 3A4 = Cytochrome P450 3A4 (Homo sapiens, UniProt P08684);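 note: CYP3A4 tested as one member of a cytochrome P450 panel screen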
Cysteine protease ATG4B = biological target: T2, Cysteine protease ATG4B (Homo sapiens, UniProt Q9Y4P1); test: autophagin-1 cysteine protease inhibition – biochemical, fluorescence, set 2, dose response (AID 588584); format: functional
T2 sequence (Q9Y4P1 whole entry): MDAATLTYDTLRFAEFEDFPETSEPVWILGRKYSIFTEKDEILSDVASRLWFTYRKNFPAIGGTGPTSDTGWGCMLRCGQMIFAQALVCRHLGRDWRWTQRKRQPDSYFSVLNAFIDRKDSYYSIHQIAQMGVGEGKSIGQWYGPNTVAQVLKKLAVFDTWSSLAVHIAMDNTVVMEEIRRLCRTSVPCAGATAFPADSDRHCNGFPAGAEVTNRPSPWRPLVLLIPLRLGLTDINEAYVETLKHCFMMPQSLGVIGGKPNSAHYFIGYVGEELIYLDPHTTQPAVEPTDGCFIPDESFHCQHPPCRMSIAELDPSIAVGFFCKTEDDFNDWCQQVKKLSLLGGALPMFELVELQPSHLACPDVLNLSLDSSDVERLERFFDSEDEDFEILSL

HEK293 [14] = test: cells; settings: Homo sapiens
[15] = Counterscreen for activators of the function of SWI/SNF related, matrix associated, actin dependent regulator of chromatin, subfamily a, member 2 (SMARCA2, BRM): Luminescence-based cell-based high throughput dose response assay to identify non-selective compounds using the VP16 reporter assay.; format: functional
[16] = viability loss in HeLa cells – cytotoxicity control for MgcRacGAP inhibitor project, dose response (AID 624300); format: functional
HEK293 [17] = test: cells; settings: Homo sapiens; remark: listed apart in the source
[18] = inhibition of ARNT PAS-B/TACC3 complex formation – biochemical, AlphaScreen, cherry-picked samples, confirmation (AID 651703); format: functional, Homo sapiens;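 note: His-tagged ARNT PAS-B domain paired with GST-TACC3 E629A dimer coactivator fragment; potency of inhibitors that break up the complex and lower AlphaScreen signal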
HeLa = test: viability loss in HeLa cells – cell-based, 24 h, cherry-picked samples, cytotoxicity control, dose response (AID 504726); format: functional; settings: Homo sapiens;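 note: potency for cytotoxicity as loss of luminescence signal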
[19] = biological target: SWI/SNF-related matrix-associated actin-dependent regulator of chromatin subfamily A member 2 (Homo sapiens, UniProt P51531); test: Luminescence-based cell-based high throughput dose response assay to identify activators of the function of SWI/SNF related, matrix associated, actin dependent regulator of chromatin, subfamily a, member 2 (SMARCA2, BRM).; format: functional
[20] = biological target: T3, Rac GTPase-activating protein 1 (Homo sapiens, UniProt Q9H0H5); test: blockers of MgcRacGAP-driven Rac1 GTP hydrolysis – biochemical, ADP Hunter fluorescence, primary and confirmatory, confirmation (AID 624330); format: functional
T3 sequence (Q9H0H5 whole entry): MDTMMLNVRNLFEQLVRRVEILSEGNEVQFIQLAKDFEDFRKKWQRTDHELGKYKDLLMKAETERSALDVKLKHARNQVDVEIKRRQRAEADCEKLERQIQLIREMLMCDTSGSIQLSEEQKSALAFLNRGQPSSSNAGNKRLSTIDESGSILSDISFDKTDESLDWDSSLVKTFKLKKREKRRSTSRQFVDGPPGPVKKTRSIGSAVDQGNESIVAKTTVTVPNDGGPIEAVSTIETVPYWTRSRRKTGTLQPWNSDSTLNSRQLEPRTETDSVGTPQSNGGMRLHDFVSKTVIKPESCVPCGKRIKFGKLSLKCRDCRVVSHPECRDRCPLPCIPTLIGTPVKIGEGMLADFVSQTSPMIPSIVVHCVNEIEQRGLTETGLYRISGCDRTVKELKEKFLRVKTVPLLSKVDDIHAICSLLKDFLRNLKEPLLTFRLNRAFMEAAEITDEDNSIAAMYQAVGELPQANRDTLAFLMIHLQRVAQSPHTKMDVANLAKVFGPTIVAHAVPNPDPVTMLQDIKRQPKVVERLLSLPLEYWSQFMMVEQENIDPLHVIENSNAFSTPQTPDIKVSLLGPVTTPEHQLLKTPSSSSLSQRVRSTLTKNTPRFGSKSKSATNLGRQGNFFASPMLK

ORF 73 = ORF 73 (Human herpesvirus 8, UniProt O40947); test: KSHV LANA DNA-binding disruption – biochemical, fluorescence polarization, cherry-picked samples, dose response (AID 504725); design: species or system Human gammaherpesvirus 8;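 note: fluorescence polarization of a labeled DNA duplex reporting LANA DNA binding; potency is for inhibitors that block LANA binding to the DNA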
Keap1/Nrf2 = Keap1/Nrf2 (Homo sapiens, UniProt Q14145); test: disruptors of Keap1 binding to Nrf2 peptide – biochemical, fluorescence polarization, cherry-picked samples, dose response (AID 588683)
[21] = biological target: T4, Tyrosine-protein phosphatase non-receptor type 7 (Homo sapiens, UniProt P35236); test: redox-active compounds inhibiting HePTP phosphatase – biochemical, fluorescence, mechanism study (AID 2068); format: functional
T4 sequence (P35236 whole entry): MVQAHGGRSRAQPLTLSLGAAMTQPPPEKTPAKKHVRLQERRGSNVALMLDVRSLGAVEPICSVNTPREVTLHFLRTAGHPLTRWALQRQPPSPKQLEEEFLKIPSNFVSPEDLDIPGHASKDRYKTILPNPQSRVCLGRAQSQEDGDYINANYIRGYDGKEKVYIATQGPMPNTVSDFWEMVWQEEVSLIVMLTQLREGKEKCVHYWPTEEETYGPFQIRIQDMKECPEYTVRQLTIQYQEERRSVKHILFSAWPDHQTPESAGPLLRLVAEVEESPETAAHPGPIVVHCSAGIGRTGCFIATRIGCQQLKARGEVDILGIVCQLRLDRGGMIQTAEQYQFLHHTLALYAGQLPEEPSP

[22] = biological target: Dual specificity protein phosphatase 6 (Rattus norvegicus, UniProt Q64346); format: functional;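 note: confirmatory in vitro dose-response testing of MKP-3 inhibition; recombinant His-tagged MKP-3 made in E. coli BL21 with OMFP substrate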
[23] = HEK-293T viability loss, compound-treated – cell-based, uHTS hits, cytotoxicity control for B/T-cell NF-kB inhibitor project, dose response (AID 489019); format: functional;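 note: IC50 reflects cytotoxicity as loss of cell viability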
Jurkat = test: blockers of NF-kB activation in T cells – Jurkat, luciferase reporter, luminescence, B- and T-cell, dose response (AID 489004); format: functional, cell-based; settings: Homo sapiens;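 note: NF-kB luciferase reporter Jurkat cells stimulated with PMA plus ionomycin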
[24] = Luminescence Cell-Based Secondary HTS screen to identify cytotoxic compounds of NIH3T3 cells. [Related pubchem assays: 1885, 1968 ]; format: functional
[25] = Luminescence Cell-Based/Microorganism Confirmation at Dose of Inhibitors of Trypanosoma cruzi Infection. [Related pubchem assays: 1885, 1968 ]; format: functional
[26] = T. cruzi infection blockers in NIH3T3 cells – beta-gal luminescence, NIH3T3 host cells, confirmation (AID 2630); format: functional, cell-based; settings: Mus musculus
[27] = biological target: Dual specificity protein phosphatase 3 (Homo sapiens, UniProt P51452); test: SAR VHR1 Fluorescent Assay for In Vitro dose response studies Set 3. [Related pubchem assays (depositor defined):AID1654, AID1661, AID1878]; format: functional
Dual specificity protein phosphatase 3, sequence (P51452 whole entry): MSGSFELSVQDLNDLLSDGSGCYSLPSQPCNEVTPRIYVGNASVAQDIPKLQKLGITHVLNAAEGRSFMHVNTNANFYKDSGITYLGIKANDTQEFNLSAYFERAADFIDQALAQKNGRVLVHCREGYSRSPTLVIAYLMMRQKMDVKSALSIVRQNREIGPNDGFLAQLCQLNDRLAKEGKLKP

SWI/SNF-related matrix-associated actin-dependent regulator of chromatin subfamily A member 2, sequence (P51531 whole entry): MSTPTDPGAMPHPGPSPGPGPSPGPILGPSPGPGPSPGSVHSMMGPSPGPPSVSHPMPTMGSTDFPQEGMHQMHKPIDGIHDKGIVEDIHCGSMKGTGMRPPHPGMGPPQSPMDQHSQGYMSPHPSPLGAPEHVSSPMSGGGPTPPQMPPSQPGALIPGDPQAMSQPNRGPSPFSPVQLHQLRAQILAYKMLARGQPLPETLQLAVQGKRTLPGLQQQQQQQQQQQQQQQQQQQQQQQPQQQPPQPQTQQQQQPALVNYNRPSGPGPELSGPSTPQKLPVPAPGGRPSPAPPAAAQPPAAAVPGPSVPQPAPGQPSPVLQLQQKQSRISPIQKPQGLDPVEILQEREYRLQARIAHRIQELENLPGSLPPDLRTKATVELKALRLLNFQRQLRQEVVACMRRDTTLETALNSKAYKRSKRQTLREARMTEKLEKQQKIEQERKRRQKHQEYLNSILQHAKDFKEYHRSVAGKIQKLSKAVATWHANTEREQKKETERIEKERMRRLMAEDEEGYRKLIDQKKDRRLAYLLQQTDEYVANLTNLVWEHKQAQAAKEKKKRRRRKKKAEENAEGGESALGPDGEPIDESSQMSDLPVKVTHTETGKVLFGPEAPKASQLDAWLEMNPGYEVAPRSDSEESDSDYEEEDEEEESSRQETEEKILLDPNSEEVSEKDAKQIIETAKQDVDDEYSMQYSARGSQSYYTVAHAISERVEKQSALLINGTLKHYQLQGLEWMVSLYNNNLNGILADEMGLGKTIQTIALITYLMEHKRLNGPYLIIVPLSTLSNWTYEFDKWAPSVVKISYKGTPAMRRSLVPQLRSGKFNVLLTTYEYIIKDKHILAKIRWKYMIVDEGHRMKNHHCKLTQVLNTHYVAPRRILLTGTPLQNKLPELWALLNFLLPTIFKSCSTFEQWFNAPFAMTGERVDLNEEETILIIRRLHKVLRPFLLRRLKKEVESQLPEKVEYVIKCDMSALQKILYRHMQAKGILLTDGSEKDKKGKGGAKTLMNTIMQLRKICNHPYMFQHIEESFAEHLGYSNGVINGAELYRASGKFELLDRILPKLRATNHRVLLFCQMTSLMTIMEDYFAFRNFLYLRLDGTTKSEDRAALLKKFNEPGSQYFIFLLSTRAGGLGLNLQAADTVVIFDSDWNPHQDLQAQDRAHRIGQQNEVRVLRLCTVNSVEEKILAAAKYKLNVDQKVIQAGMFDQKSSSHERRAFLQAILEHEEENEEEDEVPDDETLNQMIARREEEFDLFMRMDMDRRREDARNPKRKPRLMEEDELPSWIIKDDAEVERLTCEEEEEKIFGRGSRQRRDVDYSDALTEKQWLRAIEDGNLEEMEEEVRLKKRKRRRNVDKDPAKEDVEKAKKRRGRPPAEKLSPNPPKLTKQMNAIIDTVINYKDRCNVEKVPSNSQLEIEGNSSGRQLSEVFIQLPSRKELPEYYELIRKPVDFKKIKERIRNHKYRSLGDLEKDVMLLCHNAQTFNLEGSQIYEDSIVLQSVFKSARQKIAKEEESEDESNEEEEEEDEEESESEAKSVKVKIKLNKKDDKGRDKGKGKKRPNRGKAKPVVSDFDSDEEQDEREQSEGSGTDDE
Cytochrome P450 2D6, sequence (P10635 whole entry): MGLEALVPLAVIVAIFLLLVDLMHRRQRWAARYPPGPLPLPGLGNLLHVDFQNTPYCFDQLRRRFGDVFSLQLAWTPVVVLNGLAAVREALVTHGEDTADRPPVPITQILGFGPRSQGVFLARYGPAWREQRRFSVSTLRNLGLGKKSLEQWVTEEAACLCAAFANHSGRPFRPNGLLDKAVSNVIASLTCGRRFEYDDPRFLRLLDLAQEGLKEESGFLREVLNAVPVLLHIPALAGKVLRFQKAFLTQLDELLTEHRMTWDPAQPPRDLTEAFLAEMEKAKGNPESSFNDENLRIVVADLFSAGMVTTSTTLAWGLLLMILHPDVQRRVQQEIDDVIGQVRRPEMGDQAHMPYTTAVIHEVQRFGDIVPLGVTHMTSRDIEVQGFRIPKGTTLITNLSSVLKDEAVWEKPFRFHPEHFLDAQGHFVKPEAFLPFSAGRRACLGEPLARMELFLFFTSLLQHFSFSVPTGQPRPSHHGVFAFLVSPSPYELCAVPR
Dual specificity protein phosphatase 6, sequence (Q64346 whole entry): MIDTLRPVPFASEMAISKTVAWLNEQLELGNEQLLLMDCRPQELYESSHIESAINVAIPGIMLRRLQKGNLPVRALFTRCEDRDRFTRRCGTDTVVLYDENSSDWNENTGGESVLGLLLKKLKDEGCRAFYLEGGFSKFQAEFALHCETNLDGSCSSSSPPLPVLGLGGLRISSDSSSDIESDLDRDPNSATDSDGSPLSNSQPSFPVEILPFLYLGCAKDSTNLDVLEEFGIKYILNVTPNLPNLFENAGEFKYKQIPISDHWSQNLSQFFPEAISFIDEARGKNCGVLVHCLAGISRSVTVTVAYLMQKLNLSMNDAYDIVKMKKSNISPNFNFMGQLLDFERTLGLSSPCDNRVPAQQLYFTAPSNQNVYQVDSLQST
Cytochrome P450 3A4, sequence (P08684 whole entry): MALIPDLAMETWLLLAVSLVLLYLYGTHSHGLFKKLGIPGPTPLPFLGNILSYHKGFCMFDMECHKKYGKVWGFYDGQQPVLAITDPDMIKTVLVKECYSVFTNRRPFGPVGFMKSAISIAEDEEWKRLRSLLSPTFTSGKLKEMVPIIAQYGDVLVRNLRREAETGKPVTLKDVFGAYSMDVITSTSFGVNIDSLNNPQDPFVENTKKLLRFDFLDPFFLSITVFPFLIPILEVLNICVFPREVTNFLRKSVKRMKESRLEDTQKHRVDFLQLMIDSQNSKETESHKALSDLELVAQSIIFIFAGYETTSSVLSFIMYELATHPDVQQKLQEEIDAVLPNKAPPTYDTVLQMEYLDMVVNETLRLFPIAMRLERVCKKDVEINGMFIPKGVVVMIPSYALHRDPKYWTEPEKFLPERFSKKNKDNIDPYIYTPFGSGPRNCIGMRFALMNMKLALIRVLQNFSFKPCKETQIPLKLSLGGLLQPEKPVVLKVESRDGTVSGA
Keap1/Nrf2, sequence (Q16236 whole entry): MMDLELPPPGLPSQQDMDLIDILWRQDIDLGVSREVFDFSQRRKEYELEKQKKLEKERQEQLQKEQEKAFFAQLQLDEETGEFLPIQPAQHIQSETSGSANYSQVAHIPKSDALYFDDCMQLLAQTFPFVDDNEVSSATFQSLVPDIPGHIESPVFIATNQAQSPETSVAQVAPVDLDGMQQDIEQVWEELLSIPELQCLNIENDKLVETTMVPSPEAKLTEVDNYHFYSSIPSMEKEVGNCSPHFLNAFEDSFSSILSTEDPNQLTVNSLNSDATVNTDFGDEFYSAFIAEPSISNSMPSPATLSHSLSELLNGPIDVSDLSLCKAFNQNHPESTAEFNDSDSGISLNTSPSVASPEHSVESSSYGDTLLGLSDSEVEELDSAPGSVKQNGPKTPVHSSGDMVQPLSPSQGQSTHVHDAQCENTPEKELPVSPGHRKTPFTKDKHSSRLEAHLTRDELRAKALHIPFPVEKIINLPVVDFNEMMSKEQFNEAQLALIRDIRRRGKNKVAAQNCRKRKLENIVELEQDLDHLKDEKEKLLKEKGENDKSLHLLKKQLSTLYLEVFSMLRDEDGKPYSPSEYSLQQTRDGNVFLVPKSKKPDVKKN
Keap1/Nrf2, sequence (Q14145 whole entry): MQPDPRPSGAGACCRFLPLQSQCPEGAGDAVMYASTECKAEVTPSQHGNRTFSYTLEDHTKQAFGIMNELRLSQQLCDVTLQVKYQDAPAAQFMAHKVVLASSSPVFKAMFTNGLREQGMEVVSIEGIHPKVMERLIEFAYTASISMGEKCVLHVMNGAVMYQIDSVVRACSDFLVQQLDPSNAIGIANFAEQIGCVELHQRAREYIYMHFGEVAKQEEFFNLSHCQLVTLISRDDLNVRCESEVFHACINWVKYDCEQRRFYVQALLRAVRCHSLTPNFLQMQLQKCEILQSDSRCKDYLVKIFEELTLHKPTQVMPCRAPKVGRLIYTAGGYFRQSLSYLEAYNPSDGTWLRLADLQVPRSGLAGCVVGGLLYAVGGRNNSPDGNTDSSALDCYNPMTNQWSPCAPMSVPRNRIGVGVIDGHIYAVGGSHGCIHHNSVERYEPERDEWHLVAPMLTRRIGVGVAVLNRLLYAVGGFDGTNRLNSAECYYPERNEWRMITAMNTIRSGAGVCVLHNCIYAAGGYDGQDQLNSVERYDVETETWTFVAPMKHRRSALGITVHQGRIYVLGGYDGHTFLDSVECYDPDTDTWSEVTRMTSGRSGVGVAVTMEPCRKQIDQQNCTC
Phospholipase A2, sequence (P04054 whole entry): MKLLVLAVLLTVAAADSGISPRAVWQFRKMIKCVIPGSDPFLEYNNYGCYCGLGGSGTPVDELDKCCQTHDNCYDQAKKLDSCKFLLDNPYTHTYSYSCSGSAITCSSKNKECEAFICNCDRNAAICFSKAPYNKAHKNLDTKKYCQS

For COc1ccc(CC2(CO)CCN(CC3=Cc4cc(Cl)ccc4OC3)CC2)cc1, the AC50 (INS1) was 3.28 µM (active), the IC50 [1] was 1.28 µM (active) and the EC50 [2] was > 60 µM (inconclusive). For the same compound, the AC50 [3] was 7.73 µM (active), the IC50 (HEK293 [4]) was 3.77 µM (active) and the EC50 [5] was 1.68 µM (active). For the same compound, the AC50 [6] was 1.33 µM (active), the IC50 [7] was 1.79 µM (active) and the EC50 (HEK293 [8]) was 5.44 µM (active). For the same compound, the IC50 (HEK293 [9]) was 4.31 µM (active), the IC50 (HEK293 [10]) was 8.64 µM (active) and the AC50 [11] was 7.74 µM (active).

In the case of CCOc1ccc(C(=O)Nc2cnn(Cc3ccc(Cl)c(Cl)c3)c2)cc1, the AC50 (Cytochrome P450 2D6) is reported as 15.8 µM (inconclusive), the EC50 [12] is reported as > 53 µM (inactive) and the IC50 [13] is reported as > 47.1 µM (inactive). For the same compound, the IC50 (Phospholipase A2) was 79.1 µM (inactive), the AC50 (Cytochrome P450 3A4) was 22.4 µM (inconclusive) and the IC50 (Cysteine protease ATG4B) was 68.1 µM (inactive).

For CN(C)CCNc1ccc2ncn3c4ccc(O)cc4c(=O)c1c23, the EC50 (HEK293 [14]) was > 59.6 µM (inactive), the EC50 [15] was > 91.1 µM (inactive) and the CC50 [16] was 49.2 µM (active). The EC50 (HEK293 [17]) was > 6.62 µM (active), the AC50 [18] was 89 µM (active) and the AC50 (HeLa) was 11.5 µM (active). The EC50 [19] was 11.5 µM (inactive), the IC50 [20] was 46.8 µM (active) and the AC50 (ORF 73) was 6.38 µM (active). For the same compound, the AC50 (Keap1/Nrf2) was 3.79 µM (active).

In the case of CCN(CC)C(=O)c1cn(CCOc2ccccc2)c2ccccc12, the IC50 [21] is reported as 1.38 µM (active) and the IC50 [22] is reported as > 100 µM (inactive).

In the case of CCCCCNC(=O)c1ccc2c(=O)n(CC3CCCO3)c(=O)[nH]c2c1 (stereo unspecified), the IC50 [23] is reported as > 80 µM (inactive) and the IC50 (Jurkat) is reported as > 80 µM (inactive).

With COc1ccccc1/C=C/C(=O)OCCCN(C)C the EC50 [24] was > 195 µM (not active), the EC50 [25] was 2.52 µM (active) and the EC50 [26] was 2.52 µM (active).

With COc1cccc2sc(NC(=O)c3ccc(C(=O)c4ccccc4)cc3)nc12 the IC50 [27] was > 66 µM (inactive).
